Experimental findings from patent US10687532B2, “Substituted oxadiazoles for combating phytopathogenic fungi” (BASF SE, priority 2015, dated 2020) are described below.

The molecule `O=C(Nc1ccc(-c2noc(C(F)(F)F)n2)cc1)C1CCC1` [Ex-2, N-[4-[5-(trifluoromethyl)-1,2,4-oxadiazol-3-yl]phenyl]cyclobutanecarboxamide] registered a melting point of 183 °C.

The molecule `CN(C(=O)C1CC1)c1ccc(-c2noc(C(F)(F)F)n2)cc1` [Ex-7, N-methyl-N-[4-[5-(trifluoromethyl)-1,2,4-oxadiazol-3-yl]phenyl]cyclopropanecarboxamide] yielded a melting point of 98 °C.
